Results: patent publication US8053574B2, “Organic compounds” (Novartis AG, priority 2007, dated 2011)

Target: PI3K γ (Homo sapiens, UniProt P48736)
Test: PI3 kinase phosphorylation assay (Biological Method 1), Ki γ
Assay type: biochemical
Description: The compounds of the invention were synthesized according to the examples provided above. PI3K inhibitory (IC50) values of the compounds were determined according to Biological Method 1.
Assay 1: Homogenous Solution Phase Assay
Compounds to be tested are dissolved in DMSO and directly distributed into 384-well flashplates at 1.25 μL per well. To start the reaction, 20 μL of 6 nM PI3 kinase are added into each well followed by 20 μL of 400 nM ATP containing a trace of radiolabeled ATP and 900 nM 1-alpha-phosphatidylinositol (PI). The plates are briefly centrifuged to remove any air gap. The reaction is performed for 15 minutes and then stopped by the addition of 20 μL of 100 mM EDTA. The stopped reaction is incubated overnight at RT to allow the lipid substrate to bind by hydrophobic interaction to the surface of the flashplate. The liquid in the wells is then washed away, and the labeled substrate is detected with scintillation counting.
Assay 2: One Step Solid Phase Assay
This method is similar to Assay 1 except that the lipid substrate (1-alpha-phosphatidylinositol (PI)) is first dissolved in a coating buffer and incubated on flashplate at room temperature overnight to allow the lipid substrate to bind by hydrophobic interaction to the surface of the flashplate. Unbound substrate is then washed away. On the day of assay, 20 μL of 6 nM PI3 kinase are added into each well followed by 20 μL of 400 nM ATP containing trace of radiolabeled ATP. Compounds are added together with enzyme and ATP to the lipid-coated plates. The plates are briefly centrifuged to remove any air gap. The reaction is performed for two to three hours. The reaction is stopped by addition of 20 μL of 100 mM EDTA or by immediate plate washing. Phosphorylated lipid substrate is detected by scintillation counting.
Assay 3: ATP Depletion Assay
Compounds to be tested are dissolved in DMSO and directly distributed into a black 384-well plate at 1.25 μL per well. To start the reaction, 25 μL of 10 nM PI3 kinase and 5 μg/mL 1-alpha-phosphatidylinositol (PI) are added into each well followed by 25 μL of 2 μM ATP. The reaction is performed until approx 50% of the ATP is depleted, and then stopped by the addition of 25 μL of KinaseGlo solution. The stopped reaction is incubated for 5 minutes and the remaining ATP is then detected via luminescence.

[1] = Table 2, compounds of formula X
[2] = Table 1, compounds of formula X
[3] = Table 3, compounds of formula XI

Sequence of PI3K γ (P48736 whole entry): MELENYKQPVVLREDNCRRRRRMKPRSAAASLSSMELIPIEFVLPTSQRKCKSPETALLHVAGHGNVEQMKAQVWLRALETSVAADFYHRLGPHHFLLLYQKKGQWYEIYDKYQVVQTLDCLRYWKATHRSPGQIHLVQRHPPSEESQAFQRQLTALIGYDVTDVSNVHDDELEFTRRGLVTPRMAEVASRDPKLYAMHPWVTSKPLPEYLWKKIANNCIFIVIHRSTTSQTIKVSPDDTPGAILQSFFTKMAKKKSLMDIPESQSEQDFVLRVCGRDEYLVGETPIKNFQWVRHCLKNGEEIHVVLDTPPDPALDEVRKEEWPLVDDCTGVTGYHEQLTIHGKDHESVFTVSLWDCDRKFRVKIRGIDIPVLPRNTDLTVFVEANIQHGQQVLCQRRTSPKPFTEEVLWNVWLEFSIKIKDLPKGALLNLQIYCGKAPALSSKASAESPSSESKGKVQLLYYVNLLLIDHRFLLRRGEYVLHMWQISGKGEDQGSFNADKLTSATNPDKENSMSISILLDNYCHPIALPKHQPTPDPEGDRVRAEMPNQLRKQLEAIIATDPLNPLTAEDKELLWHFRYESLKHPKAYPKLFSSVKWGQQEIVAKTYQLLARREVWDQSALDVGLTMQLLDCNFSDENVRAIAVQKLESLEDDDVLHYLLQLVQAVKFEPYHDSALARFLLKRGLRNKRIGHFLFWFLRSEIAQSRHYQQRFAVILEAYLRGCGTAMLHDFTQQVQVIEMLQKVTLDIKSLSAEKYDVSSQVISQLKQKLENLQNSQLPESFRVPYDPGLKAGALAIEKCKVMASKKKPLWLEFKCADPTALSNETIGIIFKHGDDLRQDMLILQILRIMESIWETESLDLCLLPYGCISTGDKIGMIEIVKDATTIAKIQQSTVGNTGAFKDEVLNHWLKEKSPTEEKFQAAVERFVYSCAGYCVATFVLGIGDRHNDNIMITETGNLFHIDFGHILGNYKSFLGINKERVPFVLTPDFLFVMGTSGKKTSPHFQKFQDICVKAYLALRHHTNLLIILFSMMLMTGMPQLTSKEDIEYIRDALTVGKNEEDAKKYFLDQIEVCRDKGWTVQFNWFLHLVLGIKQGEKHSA

Structure (SMILES): Cc1ccc(-c2ccc3nc(NC(=O)NCCc4nnn(C(C)C)n4)cn3c2)cn1 [Example 1-24, 1-[2-(2-Isopropyl-2H-tetrazol-5-yl)-ethyl]-3-[6-(6-methyl-pyridin-3-yl)-imidazo[1,2-a]pyridin-2-yl]urea]
- Ki [1]: 0.113 µM

Structure (SMILES): O=C(NCCn1nnc(C2CC2)n1)Nc1cn2cc(-c3cncc(C(F)(F)F)c3)ccc2n1 [Example 1-27, 1-[2-(5-Cyclopropyl-tetrazol-2-yl)-ethyl]-3-[6-(5-trifluoromethyl-pyridin-3-yl)-imidazo[1,2-a]pyridin-2-yl]-urea]
- Ki [1]: 0.028 µM

Structure (SMILES): O=C(NCCn1nnc(C2CC2)n1)Nc1cn2cc(-c3cncc(C(F)(F)F)c3)ccc2n1 [drawing 67]
- Ki [2]: 0.028 µM

Structure (SMILES): CCOc1cncc(-c2ccc3nc(NC(=O)NCCc4nnn(C(C)C)n4)cn3c2)c1 [Example 1-6, 1-[6-(5-Ethoxy-pyridin-3-yl)-imidazo[1,2-a]pyridin-2-yl]-3-[2-(2-isopropyl-2H-tetrazol-5-yl)-ethyl]-urea]
- Ki [1]: 0.048 µM

Structure (SMILES): CC(C)(C)NC(=O)CCNC(=O)Nc1cn2cc(-c3cncc(-c4ccccc4)c3)ccc2n1 [Example 1-15, N-tert-Butyl-3-{3-[6-(5-phenyl-pyridin-3-yl)-imidazo[1,2-a]pyridin-2-yl]ureido}-propionamide]
- Ki [1]: 0.207 µM

Structure (SMILES): CC(C)n1nnc(CCNC(=O)Nc2cn3cc(-c4cncc(C#N)c4)ccc3n2)n1 [Example 1-3, 1-[6-(5-Cyano-pyridin-3-yl)-imidazo[1,2-a]pyridin-2-yl]-3-[2-(2-isopropyl-2H-tetrazol-5-yl)-ethyl]-urea]
- Ki [1]: 0.04 µM

Structure (SMILES): CCn1nnc(CCNC(=O)Nc2nc3cc(-c4cccnc4)ccn3n2)n1 [Example 3-15, 1-[2-(2-Ethyl-2H-tetrazol-5-yl)-ethyl]-3-(7-pyridin-3-yl-[1,2,4]triazolo[1,5-a]pyridin-2-yl)-urea]
- Ki (Table 4): 0.502 µM

Structure (SMILES): CCc1nnn(CCNC(=O)Nc2cn3cc(-c4cncc(C#N)c4)ccc3n2)n1 [Example 1-26, 1-[6-(5-Cyano-pyridin-3-yl)-imidazo[1,2-a]pyridin-2-yl]-3-[2-(5-ethyl-tetrazol-2-yl)-ethyl]-urea]
- Ki [1]: 0.115 µM

Structure (SMILES): CCn1nnc(CCNC(=O)Nc2cn3cc(-c4ccc5c(c4)OCO5)ccc3n2)n1 [drawing 29]
- Ki [2]: 0.303 µM

Structure (SMILES): O=C(NCCc1nnn(CCF)n1)Nc1nc2ccc(-c3cccnc3)cc2s1 [Example 2-1, 1-{2-[2-(2-Fluoro-ethyl)-2H-tetrazol-5-yl]-ethyl}-3-(6-pyridin-3-yl-benzothiazol-2-yl)-urea]
- Ki [3]: 0.008 µM

Structure (SMILES): CCn1nnc(CCNC(=O)Nc2cn3nc(-c4cncc(C#N)c4)ccc3n2)n1 [Example 3-2, 1-[6-(5-Cyano-pyridin-3-yl)-imidazo[1,2-b]pyridazin-2-yl]-3-[2-(2-ethyl-2H-tetrazol-5-yl)-ethyl]-urea]
- Ki (Table 4): 0.031 µM

Structure (SMILES): CCn1nnc(CCNC(=O)Nc2cn3cc(Br)ccc3n2)n1 [drawing 103]
- Ki [2]: 0.911 µM

Structure (SMILES): CCc1cncc(-c2ccc3nc(NC(=O)NCCc4nnn(C(C)C)n4)cn3c2)c1 [Example 1-22, 1-[6-(5-Ethyl-pyridin-3-yl)-imidazo[1,2-a]pyridin-2-yl]-3-[2-(2-isopropyl-2H-tetrazol-5-yl)-ethyl]-urea]
- Ki [1]: 0.025 µM

Structure (SMILES): COc1ccc(-c2ccc3nc(NC(=O)NCCN(C)C)sc3c2)cn1 [Example 2-3, 1-(2-Dimethylamino-ethyl)-3-[6-(6-methoxy-pyridin-3-yl)-benzothiazol-2-yl]urea]
- Ki [3]: 0.038 µM

Structure (SMILES): CCn1nnc(CCNC(=O)Nc2nc3ccc(-c4cncc(C#N)c4)cn3n2)n1 [Example 3-9, 1-[6-(5-Cyano-pyridin-3-yl)-[1,2,4]triazolo[1,5-a]pyridin-2-yl]-3-[2-(2-ethyl-2H-tetrazol-5-yl)-ethyl]-urea]
- Ki (Table 4): 0.418 µM

Structure (SMILES): CCn1nnc(CCNC(=O)Nc2cn3cc(-c4cc(Cl)cc(OC)c4)ccc3n2)n1
- Ki [2]: 0.204 µM

Structure (SMILES): Cc1ccc(-c2ccc3nc(NC(=O)NCCc4nnn(C(C)C)n4)cn3c2)cn1 [drawing 61]
- Ki [2]: 0.113 µM

Structure (SMILES): CCc1cncc(-c2ccc3nc(NC(=O)NCCc4nnn(C(C)C)n4)cn3c2)c1 [drawing 57]
- Ki [2]: 0.025 µM

Structure (SMILES): CCc1nnn(CCNC(=O)Nc2cn3cc(-c4cncc(C(F)(F)F)c4)ccc3n2)n1 [Example 1-25, 1-[2-(5-Ethyl-tetrazol-2-yl)-ethyl]-3-[6-(5-trifluoromethyl-pyridin-3-yl)-imidazo[1,2-a]pyridin-2-yl]urea]
- Ki [1]: 0.026 µM

Structure (SMILES): COc1ccc(-c2ccc3nc(NC(=O)NCCc4nnn(CCF)n4)sc3c2)cn1 [Example 2-2, 1-{2-[2-(2-Fluoro-ethyl)-2H-tetrazol-5-yl]-ethyl}-3-[6-(6-methoxy-pyridin-3-yl)-benzothiazol-2-yl]-urea]
- Ki [3]: 0.02 µM

Structure (SMILES): CCOc1cncc(-c2ccc3nc(NC(=O)NCCc4nnn(C(C)C)n4)cn3c2)c1 [drawing 25]
- Ki [2]: 0.048 µM

Structure (SMILES): CC(C)n1nnc(CCNC(=O)Nc2cn3cc(-c4cncc(Cl)c4)ccc3n2)n1 [drawing 37]
- Ki [2]: 0.05 µM

Structure (SMILES): CCn1nnc(CCNC(=O)Nc2cn3nc(-c4cncc(F)c4)ccc3n2)n1 [Example 3-17, 1-[2-(2-Ethyl-2H-tetrazol-5-yl)-ethyl]-3-[6-(5-fluoro-pyridin-3-yl)-imidazo[1,2-b]pyridazin-2-yl]-urea]
- Ki (Table 4): 0.107 µM

Structure (SMILES): CCn1cnc(CCNC(=O)Nc2cn3cc(-c4cncc(C(F)(F)F)c4)ccc3n2)c1 [drawing 59]
- Ki [2]: 0.028 µM

Structure (SMILES): CC(C)n1nnc(CCNC(=O)Nc2cn3cc(-c4cncc(Cl)c4)ccc3n2)n1 [Example 1-12, 1-[6-(5-Chloro-pyridin-3-yl)-imidazo[1,2-a]pyridin-2-yl]-3-[2-(2-isopropyl-2H-tetrazol-5-yl)-ethyl]urea]
- Ki [1]: 0.05 µM

Structure (SMILES): CC(=O)c1cncc(-c2ccc3nc(NC(=O)NCCc4nnn(C(C)C)n4)cn3c2)c1 [Example 1-43, 1-[6-(5-Acetyl-pyridin-3-yl)-imidazo[1,2-a]pyridin-2-yl]-3-[2-(2-isopropyl-2H-tetrazol-5-yl)-ethyl]urea]
- Ki [1]: 0.008 µM

Structure (SMILES): CCn1nnc(CCNC(=O)Nc2cn3cc(-c4cnn(C)c4)ccc3n2)n1 [Example 1-40, 1-[2-(2-Ethyl-2H-tetrazol-5-yl)-ethyl]-3-[6-(1-methyl-1H-pyrazol-4-yl)-imidazo[1,2-a]pyridin-2-yl]urea]
- Ki [1]: 0.456 µM

Structure (SMILES): CC(C)n1nnc(CCNC(=O)Nc2cn3cc(-c4cncc(C(F)(F)F)c4)ccc3n2)n1 [Example 1-7, 1-[2-(2-Isopropyl-2H-tetrazol-5-yl)-ethyl]-3-[6-(5-trifluoromethyl-pyridin-3-yl)-imidazo[1,2-a]pyridin-2-yl]-urea]
- Ki [1]: 0.018 µM

Structure (SMILES): CCn1nnc(CCNC(=O)Nc2cn3cc(-c4cncc5ccccc45)ccc3n2)n1 [Example 1-42, 1-[2-(2-Ethyl-2H-tetrazol-5-yl)-ethyl]-3-(6-isoquinolin-4-yl-imidazo[1,2-a]pyridin-2-yl)-urea]
- Ki [1]: 0.158 µM

Structure (SMILES): CC(C)n1nnc(CCNC(=O)Nc2cn3cc(-c4cncc(OC5CCOCC5)c4)ccc3n2)n1 [Example 1-13, 1-[2-(2-Isopropyl-2H-tetrazol-5-yl)-ethyl]-3-{6-[5-(tetrahydro-pyran-4-yloxy)-pyridin-3-yl}-imidazo[1,2-a]pyridin-2-yl]-urea]
- Ki [1]: 0.147 µM

Structure (SMILES): CCn1nnc(CCNC(=O)Nc2nc3ccc(-c4cncc(C(F)(F)F)c4)cn3n2)n1 [Example 3-7, 1-[2-(2-Ethyl-2H-tetrazol-5-yl)-ethyl]-3-[6-(5-trifluoromethyl-pyridin-3-yl)-[1,2,4]triazolo[1,5-a]pyridin-2-yl]-urea]
- Ki (Table 4): 0.376 µM

Structure (SMILES): COc1ccc(-c2ccc3nc(NC(=O)NCCc4nnn(C(C)C)n4)cn3c2)cn1 [Example 1-19, 1-[2-(2-Isopropyl-2H-tetrazol-5-yl)-ethyl]-3-[6-(6-methoxy-pyridin-3-yl)-imidazo[1,2-a]pyridin-2-yl]-urea]
- Ki [1]: 0.301 µM

Structure (SMILES): CCn1cnc(CCNC(=O)Nc2nc3ccc(-c4cncc(C(F)(F)F)c4)cc3s2)c1 [Example 2-12, 1-[2-(1-Ethyl-1H-imidazol-4-yl)-ethyl]-3-[6-(5-trifluoromethyl-pyridin-3-yl)-benzothiazol-2-yl]-urea]
- Ki [3]: 0.142 µM

Structure (SMILES): COc1ccc(-c2ccc3nc(NC(=O)NCCO)sc3c2)cn1 [Example 2-4, 1-(2-Hydroxy-ethyl)-3-[6-(6-methoxy-pyridin-3-yl)-benzothiazol-2-yl]-urea]
- Ki [3]: 0.038 µM

Structure (SMILES): Cc1ccccc1-c1cncc(-c2ccc3nc(NC(=O)NCCc4nnn(C(C)C)n4)cn3c2)c1 [drawing 91]
- Ki [2]: 1.12 µM

Structure (SMILES): CCn1nnc(CCNC(=O)Nc2cn3cc(-c4cccnc4)ncc3n2)n1 [Example 3-6, 1-[2-(2-Ethyl-2H-tetrazol-5-yl)-ethyl]-3-(6-pyridin-3-yl-imidazo[1,2-a]pyrazin-2-yl)-urea]
- Ki (Table 4): 0.082 µM

Structure (SMILES): CC(C)n1nnc(CCNC(=O)Nc2cn3cc(-c4cncc(OC5CCOCC5)c4)ccc3n2)n1 [drawing 39]
- Ki [2]: 0.147 µM
